Source: US20120003308A1, “Pharmaceutical Composition Comprising Aliskiren” (priority 2009, published 2012)

Test: Bioequivalence study of fixed combination versus free combination, single dose, crossover
Set-up: species or system human
Details: in vivo
Description: Pharmacokinetic measurements were performed on blood collected from each subject. […] The PK parameters were determined in plasma, using non-compartmental methods.

intra-subject CV for AUC0-flast of valsartan	intra-subject CV for AUC0-inf of valsartan	intra-subject CV for Cmax of valsartan	intra-subject coefficient of variation (CV) for AUC0-inf of aliskiren	intra-subject coefficient of variation (CV) for AUC0-tlast of aliskiren	intra-subject coefficient of variation (CV) for Cmax of aliskiren	SMILES
28.56%	28.33%	40.37%	–	–	–	CCCCC(=O)N(Cc1ccc(-c2ccccc2-c2nnn[nH]2)cc1)[C@H](C(=O)O)C(C)C [Valsartan]
–	–	–	33.19%	33.98%	51.90%	COCCCOc1cc(C[C@@H](C[C@H](N)[C@@H](O)C[C@H](C(=O)NCC(C)(C)C(N)=O)C(C)C)C(C)C)ccc1OC [Aliskiren, 2(S),4(S),5(S),7(S)—N-(3-amino-2,2-dimethyl-3-oxopropyl)-2,7-di(1-methylethyl)-4-hydroxy-5-amino-8-[4-methoxy-3-(3-methoxy-propoxy)phenyl]-octanamide]
